Results: patent US20210024507A1, “Compounds” (Step Pharma S.A.S., priority 2018, published 2021)
pIC50: −log10 of the molar value.

Experiments:
human CTPS1 [1] = test: RapidFire/MS-based enzyme selectivity assay, human CTPS1; type: biochemical; conditions: calculated from the CTPS1 and CTPS2 IC50 values
Procedure: The enzyme inhibitory activities against each target isoform of interest may be determined for the compounds of the invention using an optimised RapidFire high-throughput mass spectrometry (RF/MS) assay format. RF/MS assays for both human CTPS1 and CTPS2 may be performed in assay buffer consisting of 50mM HEPES (Merck), 20mM MgCl2, 5mM KCI, 1mM DTT, 0.01% Tween-20, pH to 8.0 accordingly. Human full-length active C-terminal FLAG-His-tag CTPS1 (UniProtKB - P17812, CTPS[1-591]-[…]) may be obtained from Proteros biostructures GmbH. Human full length active C-terminal FLAG-His-Avi tagged CTPS2 (UniProtKB-Q9NRF8, CTPS2 [1-586]- […]) may be obtained from Harker Bio.
Human CTPS (1 or 2) protein may be prepared in lx assay buffer to the final working protein concentration required for the reaction. A 2uL volume per well of 2× CTPS (1 or 2) protein may be mixed with 40nL of compound using acoustic (ECHO) delivery and incubated for 10 minutes at 25° C. Each isoform enzymatic reaction may be subsequently initiated by addition of 2uL per well of a 2× substrate mix in assay buffer. For hCTPS1: ATP (0.3mM), UTP (0.2mM), GTP (0.07mM) and L-glutamine (0.1mM). For hCTPS2: ATP (0.1mM), UTP (0.04mM), GTP (0.03mM) and L-glutamine (0.1mM). Each mixture may be incubated for an appropriate amount of time per isoform within the determined linear phase of the reaction at 25° C. A 60uL volume of stop solution (1% formic acid with 0.5uM ^13C9-^15N3-CTP in H2O) may be added and the plate immediately heat-sealed and centrifuged for 10 minutes at 4,000rpm. Following centrifugation, plates may be loaded onto the Agilent RapidFire microfluidic solid phase extraction system coupled to an AP14000 triple quadrupole mass spectrometer (RF/MS) for analysis.
In all cases, the enzyme converts UTP to CTP. Highly specific and sensitive multiple reaction monitoring (MRM) MS methods may be optimised for the detection of the enzymatic reaction product, CTP, and the stable isotope labelled product standard ^13C9-^15N3-CTP. Readout for data analysis may be calculated as the ratio between the peak area of the product CTP and the internal standard ^13C9-^15N3-CTP. For data reporting, the following equation may be used:
[formula] (R=ratio/readout, P=product signal area, IS=internal standard signal area)
For each screening plate, the means of the negative (DMSO) and positive control values were used for the calculation of the respective assay window (S/B) and Z′ values. The median of the respective control values was used for calculation of percent inhibition according to the following equation:
[formula] (I=Inhibition, Rneg=median of negative control readout values, Rpos=median of positive control readout values, Rsample=sample readout value)
(§1) Percentage inhibition was then plotted against compound concentration, and the 50% inhibitory concentration (IC50) was determined from the resultant concentration-response curve.
Fold selectivity between CTPS1 and CTPS2 was subsequently calculated according to the following equation: […]

human CTPS1 [2] = target: T1, human CTPS1 (Homo sapiens, UniProt P17812); test: Human CTPS1 enzyme inhibition (ADP-Glo Max assay); type: biochemical; conditions: human full length CTPS1, 25° C., read-out: CTPS1 (Human CTPS1 Enzyme Inhibition, IC50 grouped by potency range)
T1 construct: purchased Proteros biostructures GmbH
T1 sequence (P17812 1-591): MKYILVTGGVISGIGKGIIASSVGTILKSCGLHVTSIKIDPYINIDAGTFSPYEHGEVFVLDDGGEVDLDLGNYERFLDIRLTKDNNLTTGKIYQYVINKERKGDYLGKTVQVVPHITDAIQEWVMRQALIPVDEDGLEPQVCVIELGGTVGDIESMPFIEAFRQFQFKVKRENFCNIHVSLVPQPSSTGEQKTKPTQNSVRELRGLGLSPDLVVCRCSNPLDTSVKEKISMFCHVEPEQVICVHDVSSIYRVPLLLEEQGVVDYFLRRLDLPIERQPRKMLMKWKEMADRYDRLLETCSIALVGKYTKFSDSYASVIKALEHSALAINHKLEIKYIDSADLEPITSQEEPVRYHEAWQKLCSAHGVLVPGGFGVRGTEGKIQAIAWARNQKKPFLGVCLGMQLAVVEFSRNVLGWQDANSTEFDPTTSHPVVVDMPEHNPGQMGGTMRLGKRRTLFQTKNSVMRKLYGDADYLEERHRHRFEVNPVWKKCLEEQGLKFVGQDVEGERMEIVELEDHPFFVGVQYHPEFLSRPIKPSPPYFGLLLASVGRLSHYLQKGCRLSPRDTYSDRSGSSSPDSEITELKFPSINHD
Procedure: The enzyme inhibitory activities of compounds invented against the target of interest were determined using the ADP-GIoTM Max assay (Promega, UK). Assays for human CTPS1 were performed in lx assay buffer containing 50mM Tris, 10mM MgCl2, 0.01% Tween-20, pH to 8.0 accordingly. Finally, immediately before use, L-cysteine was added to the lx assay buffer to a final concentration of 2mM. All reagents are from Sigma-Aldrich unless specified otherwise. Human full length active C-terminal FLAG-Hiss-tag CTPS1 (UniProtKB - P17812, CTPS[1-591]-[…]) was obtained from Proteros biostructures GmbH.
Assay Procedure 3× human CTPS1 protein was prepared in lx assay buffer to the final working protein concentration required for the reaction. A 2uL volume per well of 3x human CTPS1 protein was mixed with 2uL per well of 3× test compound (compound prepared in lx assay buffer to an appropriate final 3× compound concentration respective to the concentration response curve designed for the compounds under test) for 10 minutes at 25° C. The enzymatic reaction was then initiated by addition of a 2uL per well volume of a pre-mixed substrate mix (UltraPure ATP from ADP-GIo™ Max kit (0.31mM), GTP (0.034mM), UTP (0.48mM) and L-glutamine (0.186mM)) and the mixture was incubated for an appropriate amount of time within the determined linear phase of the reaction at 25° C. under sealed plate conditions with constant agitation at 500 revolutions per minute (rpm). ADP-GIo™ Max reagent was added for 60 minutes ([…] per well) and subsequently ADP-GIo™ Max development reagent was added for 60 minutes (12uL per well) prior to signal detection in a microplate reader (EnVision® Multilabel Reader, Perkin Elmer). Following each reagent addition over the course of the assay, assay plates were pulse centrifuged for 30 seconds at 500rpm.
In all cases, the enzyme converts ATP to ADP and the ADP-GIo™ Max reagent subsequently depletes any remaining endogenous ATP in the reaction system. The ADP-GIo™ Max detection reagent converts the ADP that has been enzymatically produced back into ATP and using ATP as a substrate together with luciferin for the enzyme luciferase, light is generated which produces a detectable luminescence. […] The percentage inhibition produced by each concentration of compound was calculated using the equation shown below: […]
as §1

Structure (SMILES)	Selectivity (fold selectivity between CTPS1 and CTPS2) (human CTPS1 [1])	pIC50 (human CTPS1 [2])
CCOc1cncc(-c2ccc(NC(=O)C(C)(OC)c3cncc(NS(=O)(=O)C4CC4)n3)nc2)n1 (single isomer, unassigned) [P205a, 2-(6-(cyclopropanesulfonamido)pyrazin-2-yl)-N-(5-(6-ethoxypyrazin-2-yl)pyridin-2-yl)-2-methoxypropanamide]	+++ (>60 fold (+++))	
CCOc1cncc(-c2ccc(NC(=O)C(C)(OC)c3cncc(NS(=O)(=O)C4CC4)n3)nc2)n1 (single isomer, unassigned) [P205b, 2-(6-(cyclopropanesulfonamido)pyrazin-2-yl)-N-(5-(6-ethoxypyrazin-2-yl)pyridin-2-yl)-2-methoxypropanamide]	++ (>30-60 fold (++))	
CCOc1cncc(-c2ccc(NC(=O)C3(c4ccnc(NS(=O)(=O)C5CC5)n4)CCCC3)cc2)n1 [P2, 1-(2-(Cyclopropanesulfonamido)pyrimidin-4-yl)-N-(4-(6-ethoxypyrazin-2-yl)phenyl)cyclopentanecarboxamide]	+++ (>60 fold (+++))	
CC(C)Oc1cncc(-c2ccc(NC(=O)C(C)(C)c3ccnc(NS(=O)(=O)C4CC4)n3)nc2)n1 [P9, 2-(2-(cyclopropanesulfonamido)pyrimidin-4-yl)-N-(5-(6-isopropoxypyrazin-2-yl)pyridin-2-yl)-2-methylpropanamide]	+++ (>60 fold (+++))	
CC(C)Oc1cncc(-c2ccc(NC(=O)Cc3ccnc(NS(=O)(=O)C4CC4)n3)c(F)c2)n1 [P12, 2-(2-(cyclopropanesulfonamido)pyrimidin-4-yl)-N-(2-fluoro-4-(6-isopropoxypyrazin-2-yl)phenyl)acetamide]	++ (>30-60 fold (++))	
O=C(Cc1ccnc(NS(=O)(=O)C2CC2)n1)Nc1ccc(-c2cccnc2)cc1 [P16, 2-(2-(cyclopropanesulfonamido)pyrimidin-4-yl)-N-(4-(pyridin-3-yl)phenyl)acetamide]	++ (>30-60 fold (++))	
CCOc1cncc(-c2ccc(NC(=O)Cc3ccnc(NS(=O)(=O)C4CC4)n3)cc2)n1 [P18, 2-(2-(cyclopropanesulfonamido)pyrimidin-4-yl)-N-(4-(6-ethoxypyrazin-2-yl)phenyl)acetamide]	++ (>30-60 fold (++))	
CCOc1cncc(-c2ccc(NC(=O)C(CC)c3nccc(NS(=O)(=O)C4CC4)n3)nc2)n1 (stereo not shown) [P208, 2-(4-(cyclopropanesulfonamido)pyrimidin-2-yl)-N-(5-(6-ethoxypyrazin-2-yl)pyridin-2-yl)butanamide]		≥ 7.00
CCOc1cncc(-c2ccc(C(=O)NC(CC)c3ccnc(NS(=O)(=O)C4CC4)n3)nc2)n1 (stereo not shown) [P210, N-(1-(2-(cyclopropanesulfonamido)pyrimidin-4-yl)propyl)-5-(6-ethoxypyrazin-2-yl)picolinamide]		6.00 to 7.00
CCC(NC(=O)c1ccc(-c2cncc(C(F)(F)F)c2)cc1F)c1ccnc(NS(=O)(=O)C2CC2)n1 (stereo not shown) [P211, N-(1-(2-(cyclopropanesulfonamido)pyrimidin-4-yl)propyl)-2-fluoro-4-(5-(trifluoromethyl)pyridin-3-yl)benzamide]		6.00 to 7.00
CCC(NC(=O)c1ccc(-c2cncc(Cl)c2)cc1F)c1ccnc(NS(=O)(=O)C2CC2)n1 (stereo not shown) [P212, 4-(5-chloropyridin-3-yl)-N-(1-(2-(cyclopropanesulfonamido)pyrimidin-4-yl)propyl)-2-fluorobenzamide]		6.00 to 7.00
CCC(NC(=O)c1ccc(-c2cncc(C(F)(F)F)c2)cc1)c1ccnc(NS(=O)(=O)C2CC2)n1 (stereo not shown) [P213, N-(1-(2-(cyclopropanesulfonamido)pyrimidin-4-yl)propyl)-4-(5-(trifluoromethyl)pyridin-3-yl)benzamide]		6.00 to 7.00
CCC(NC(=O)c1ccc(-c2cncc(Cl)c2)cc1)c1ccnc(NS(=O)(=O)C2CC2)n1 (stereo not shown) [P214, 4-(5-chloropyridin-3-yl)-N-(1-(2-(cyclopropanesulfonamido)pyrimidin-4-yl)propyl)benzamide]		6.00 to 7.00
CCOc1cncc(-c2ccc(C(=O)NC(CC)c3ccnc(NS(=O)(=O)C4CC4)n3)c(C(F)(F)F)c2)n1 (stereo not shown) [P215, N-(1-(2-(cyclopropanesulfonamido)pyrimidin-4-yl)propyl)-4-(6-ethoxypyrazin-2-yl)-2-(trifluoromethyl)benzamide]		6.00 to 7.00
CCC(NC(=O)c1ccc(-c2cncc(C(F)(F)F)n2)cc1)c1ccnc(NS(=O)(=O)C2CC2)n1 (stereo not shown) [P217, N-(1-(2-(cyclopropanesulfonamido)pyrimidin-4-yl)propyl)-4-(6-(trifluoromethyl)pyrazin-2-yl)benzamide]		6.00 to 7.00
CCC(NC(=O)c1ccc(-c2cncc(OC(C)C)n2)cc1)c1ccnc(NS(=O)(=O)C2CC2)n1 (stereo not shown) [P218, N-(1-(2-(cyclopropanesulfonamido)pyrimidin-4-yl)propyl)-4-(6-isopropoxypyrazin-2-yl)benzamide]		≥ 7.00
CCOc1cncc(-c2ccc(C(=O)NC(CC)c3ccnc(NS(=O)(=O)C4CC4)n3)cc2)n1 (stereo not shown) [P219, N-(1-(2-(cyclopropanesulfonamido)pyrimidin-4-yl)propyl)-4-(6-ethoxypyrazin-2-yl)benzamide]		6.00 to 7.00
CCOc1cncc(-c2ccc(C(=O)NC(C)(CC)c3ccnc(NS(=O)(=O)C4CC4)n3)c(F)c2)n1 (stereo not shown) [P220, N-(2-(2-(cyclopropanesulfonamido)pyrimidin-4-yl)butan-2-yl)-4-(6-ethoxypyrazin-2-yl)-2-fluorobenzamide]		6.00 to 7.00
CCOc1cncc(-c2ccc(C(=O)NC(CC)c3cncc(NS(=O)(=O)C4CC4)n3)c(F)c2)n1 (stereo not shown) [P223, N-(1-(6-(cyclopropanesulfonamido)pyrazin-2-yl)propyl)-4-(6-ethoxypyrazin-2-yl)-2-fluorobenzamide]		6.00 to 7.00
